One molecule from patent US20160166578A1, “METHOD FOR TREATING TYPE I AND TYPE II DIABETES” (PRISM Phama Ltd., priority 2012, published 2016) can be followed below.

Series [1] can be described thus: Blood glucose levels in human clinical trial (patients with cancer and type II diabetes). Format: in vivo. As to conditions: for blood glucose levels: 7 days continuous IV infusion, one week on and one week off. How it is done: Patients with cancer and type II diabetes were enrolled in a clinical trial (Safety and Efficacy Study in Subjects With Advanced Solid). The efficacy of Compound A for the treatment of diabetes was investigated by measurement of the blood glucose level of the patients. Conditions of patients enrolled in this study are as follows:
(Patient 101), with sigmoid colon cancer and diabetes. Compound A was administered at 40 mg/m^2/day, and Metformin Hydrochloride
(Patient 1103), with colon cancer and diabetes. Compound A was administered at 905 mg/m^2/day, in addition patient was treated with pioglitazone hydrochloride (Actos) and Metformin Hydrochloride.
Compound A administration was 7 days continuous IV infusion. The cycle of administration is one week on and one week off.
In addition to already prescribed drugs (pioglitazone hydrochloride or Metformin Hydrochloride) as basic treatment, Compound A with a defined dose for each patient was intravenously administrated for 7 continuous days followed by a 7-day rest period. This 14 days period with 7-day infusion period and 7-day rest period is defined as one cycle. Basic treatment for diabetes was continuously performed during this period. During the administration period (first, fifth and eighth day of each cycle) or after the administration, blood glucose levels were measured.

Series [2] is described as follows: Primate study in aged hyperglycemic monkeys (c-peptide, insulin, HbA1c). As to conditions: 8 mg/Kg/Day continuous infusion i.p., 84 days. Format: in vivo, Macaca fascicularis. How it is done:
Animals: aged Macaca fascicularis (21 to 27 years old) monkeys that have hyperglycemia, N=3.
Administration: Compound A (8 mg/Kg/Day) administrated by continuous infusion by i.p. from day 152 to 236 (84 days). Biochemical tests: c-peptide, insulin, and HbA1c levels were measured every week.
C-peptide, a byproduct of insulin production that is elevated in hyperglycemia, was measured using ELECSYS c-peptide assay (Roche Diagnostics, Hoffmann-La Roche Ltd.) with electrochemiluminescence assay (ECLIA) readout.
Insulin levels were measured using the E test II IRI, EIA method (TOSOH Corp., Tokyo). Insulin levels are elevated in hyperglycemia.
HbA1c or glycated hemoglobin (hemoglobin A1c) was measured to identify the average glycated hemoglobin, as a measure of plasma glucose concentration, over the previous months prior to the measurement. HbA1c levels are elevated in hyperglycemia. HbA1c was measured using the Nordia N HbA1c assay kit, enzyme method (Sekisui Medical Co., Ltd., Japan).

Series [3] deals with Wnt signaling pathway. As to the kind of experiment: Reporter gene assay (SuperTOPFlash luciferase, STF reporter cell line). As to conditions: Homo sapiens; at a concentration of 1 μM; Hek-293 STF reporter cells, LiCl stimulation, 24 hours; read-out: inhibitory activity. The series is classed as cell-based. How it is done: Screening for inhibitory action of the Wnt signaling pathway was carried out according to the following procedure using an STF reporter cell line (human embryonic kidney cell line Hek-293 stably transfected with the firefly luciferase gene under the control of eight tandem repeats of the SuperTOPFlash reporter element; Cell 116:883-895, 2004).
Growth Medium: Dulbecco's Modified Eagle Medium (DMEM), 10% FBS, Pen-Strep, supplemented with 400 µg/ml G418 antibiotic to maintain selection of SuperTOPFlash driven luciferase gene.
On the day prior to assay, cells were split into a white opaque 96-well plate at 20,000 cells per well in 200 microliters of complete growth medium. The plate was incubated overnight at 37° C., 5% CO2 to allow the cells to attach to the surface.
The next day, the inhibitors were prepared to be tested in complete growth medium, without G418, at 2× the desired final concentration (all conditions are done in duplicate). The existing medium was carefully pipetted from each well using a multiple pipettor. 50 microliters of fresh growth medium (without G148) containing the inhibitor (Compound A) was added to each well. […]
After 24 hours, 100 microliters of BrightGlo reagent (Promega, Madison, Wis.) was added to each well. […] The plate was read using a Packard TopCount (PerkinElmer, Inc.).

Structures are written as SMILES.

Consider `C[C@H]1[C@H]2N(C(=O)CN(C)N2C(=O)NCc2ccccc2)[C@@H](Cc2ccc(OP(=O)(O)O)cc2)C(=O)N1Cc1cccc2cccnc12` [Compound A, 4-(((6S,9S,9aS)-1-(benzylcarbamoyl)-2,9-dimethyl-4,7-dioxo-8-(quinolin-8-ylmethyl)octahydro-1H-pyrazino[2,1-c][1,2,4]triazin-6-yl)methyl)phenyl dihydrogen phosphate], for which the blood glucose levels entry was “blood glucose levels are reduced” in series [1] (Patient 101, 40 mg/m^2/day, with Metformin Hydrochloride, by the end of every cycle (FIG. 1)); “blood glucose levels are reduced” in series [1] (Patient 1103, 905 mg/m^2/day, with pioglitazone hydrochloride and Metformin Hydrochloride, by the end of every cycle (FIG. 2)). Also, in series [1] (concomitant use with known drugs for type II diabetes), the “blood glucose level of patients with type II diabetes not adequately controlled by known drugs” value is “significantly decreased”. The “adverse effects of concomitant use” value in series [1] (patients with type II diabetes, concomitant with known drugs for diabetes) is reported as “No adverse effects”. In addition, in series [2] (FIG. 3), the c-peptide levels entry is given as “c-peptide levels fall over time”. Also, the insulin levels entry in series [2] (FIG. 4) is on record as “insulin levels fall over time”. The “HbA1c levels (ratio of mmol HbA1c to mol hemoglobin)” value in series [2] (FIG. 5) is on record as “HbA1c levels fall over time”. Also, the inhibition at 1 µM in series [3] is above 50%.
